{
  "source": "patent US6103709A",
  "about": "(priority 1998, dated 2000)",
  "key": {"[1]": {"target": "T1, human vitamin D-binding protein (hDBP) (Homo sapiens, UniProt P02774)", "T1 sequence (P02774 17-474)": "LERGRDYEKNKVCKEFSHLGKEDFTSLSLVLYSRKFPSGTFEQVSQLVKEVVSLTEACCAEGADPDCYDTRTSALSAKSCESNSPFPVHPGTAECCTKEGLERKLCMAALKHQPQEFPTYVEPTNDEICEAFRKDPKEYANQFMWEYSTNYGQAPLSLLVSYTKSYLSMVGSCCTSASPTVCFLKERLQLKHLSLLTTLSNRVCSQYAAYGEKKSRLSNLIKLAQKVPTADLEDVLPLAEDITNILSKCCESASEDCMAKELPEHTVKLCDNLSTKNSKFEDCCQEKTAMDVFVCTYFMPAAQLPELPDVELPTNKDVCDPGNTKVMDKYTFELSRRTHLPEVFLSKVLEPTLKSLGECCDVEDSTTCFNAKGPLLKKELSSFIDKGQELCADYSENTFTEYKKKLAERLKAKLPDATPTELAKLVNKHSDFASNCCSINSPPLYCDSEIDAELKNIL", "assay": "Relative Competitive Index assay, vitamin D-binding protein", "description": "The compared analogs are 14α,15α-methano-1α,25(OH)2 D3 (LO), 22(m(dimethylhydroxymethyl)phenyl)-23,24,25,26,27-pentanor-1α- OH-D3 (EV) and (22R)-1,25(OH)2 -22,23,diene-D3 (HR), all conformationally flexible genomic agonists. By definition the RCI for 1α,25(OH)2 D3 is set to 100%. The data seen in FIG. 7 represent the mean of three determinations.\nVitamin D-Binding Protein Assay Relative Competitive Index\nThis example describes a Relative Competitive Index Assay used for determination of analogs binding affinity to vitamin D-binding protein.\nPhase separation was then obtained by the addition of 0.5 ml of cold dextran-coated charcoal.\nThe data was plotted as [competitor]/[[^3 H]25(OH)D3 ] vs. 1/[fraction bound]. The RCI was calculated as [slope of competitor]/[slopefor 25(OH)D3 ]×100. Results are seen in FIG. 7. Although each analog was assayed in competition with [^3 H]25(OH)D3, the data are expressed as relative to the binding of 1α,25(OH)2 D3, with its RCI set to 100."}, "[2]": {"tested_on": "vitamin D-deficient chick", "assay": "Intestinal Ca2+ absorption (ICA) in vitamin D-deficient chick", "format": "in vivo", "details": "i.m."}, "[3]": {"tested_on": "vitamin D-deficient chick", "assay": "Bone Ca2+ mobilizing activity (BCM) in vitamin D-deficient chick", "format": "in vivo", "details": "vitamin D-deficient chick, i.m."}, "[4]": {"tested_on": "VDRnuc", "assay": "Genomic response (summary classification)", "details": "Yes/No, Tables 1 and 6"}, "[5]": {"tested_on": "VDRmem", "assay": "Rapid response (summary classification)", "details": "Yes/No, Tables 1 and 6"}},
  "data": [
    {"compound": "C=C1/C(=C\\C=C2/CCC[C@]3(C)[C@@H]([C@H](C)CCCC(C)(C)O)C[C@@H]4C[C@@]243)C[C@@H](O)C[C@@H]1O", "note": "[LO]", "values": [
      {"measurement": "Binding to DBP relative to 1α,25(OH)2 D3 (RCI, FIG. 7)", "setting": "[1]; 1α,25(OH)2 D3 = 100%, mean of three determinations", "result": 60, "unit": "%"},
      {"measurement": "Vit D Binding Protein (RCI)", "setting": "[1]; RCI of 1α,25(OH)2 D3 set to 100, 4° C., pH 7.4", "result": 60},
      {"measurement": "DBP binding (in words)", "setting": "[1]; compared with 1α,25(OH)2 D3", "result": "lower than 1α,25(OH)2 D3"},
      {"measurement": "Classic Vit D Responses ICA", "setting": "[2]; relative to 100 pmol 1α,25(OH)2 D3 = 100%, 12 h before assay", "result": 30, "unit": "%"},
      {"measurement": "ICA (in words)", "setting": "[2]; vitamin D-deficient chick", "result": "reasonable stimulator of intestinal Ca^2+ absorption (ICA)"},
      {"measurement": "BCM (in words)", "setting": "[3]", "result": "highly effective stimulator of bone Ca^2+ mobilizing activity (BCM)"},
      {"measurement": "Genomic Response", "setting": "[4]", "result": "Yes"},
      {"measurement": "Rapid Response", "setting": "[5]", "result": "Yes"}
    ]}
  ]
}
